For one experiment, the target named is T1, Androgen Receptor (AR) (Homo sapiens, UniProt P10275, T878A).
T1 construct: endogenous in cells; host or cells: LNCaP
T1 sequence (P10275 1-920 T878A): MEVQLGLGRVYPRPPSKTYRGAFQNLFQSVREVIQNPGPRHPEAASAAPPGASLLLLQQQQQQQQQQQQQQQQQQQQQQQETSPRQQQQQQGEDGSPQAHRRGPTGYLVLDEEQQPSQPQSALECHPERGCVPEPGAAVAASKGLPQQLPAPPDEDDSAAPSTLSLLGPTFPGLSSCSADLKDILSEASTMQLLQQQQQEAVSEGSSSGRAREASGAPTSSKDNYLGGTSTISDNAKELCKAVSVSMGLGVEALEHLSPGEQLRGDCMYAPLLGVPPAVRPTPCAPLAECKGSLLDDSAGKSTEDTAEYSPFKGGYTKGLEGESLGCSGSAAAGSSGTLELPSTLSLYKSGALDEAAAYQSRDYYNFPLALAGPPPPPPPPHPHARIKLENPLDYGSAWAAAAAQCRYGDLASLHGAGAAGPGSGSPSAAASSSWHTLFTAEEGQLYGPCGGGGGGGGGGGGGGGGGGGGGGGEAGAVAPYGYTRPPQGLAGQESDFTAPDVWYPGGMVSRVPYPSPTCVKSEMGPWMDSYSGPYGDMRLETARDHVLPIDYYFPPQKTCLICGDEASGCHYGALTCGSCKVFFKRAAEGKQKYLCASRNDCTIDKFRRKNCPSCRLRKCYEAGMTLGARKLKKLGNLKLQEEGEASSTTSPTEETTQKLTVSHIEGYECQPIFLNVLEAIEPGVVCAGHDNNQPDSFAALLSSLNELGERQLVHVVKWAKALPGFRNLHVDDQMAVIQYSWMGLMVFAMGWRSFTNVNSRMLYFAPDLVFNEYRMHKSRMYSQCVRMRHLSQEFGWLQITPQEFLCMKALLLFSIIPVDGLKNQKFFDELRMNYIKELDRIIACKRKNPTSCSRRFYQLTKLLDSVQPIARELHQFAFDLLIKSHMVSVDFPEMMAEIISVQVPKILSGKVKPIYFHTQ
Nature of the experiment: Measurement of AR protein degradation in LNCaP cells by Western blotting. Format: cell-based. The settings on record: 10 nM compound, 20 hours, LNCaP cells; read-out: AR degradation in LNCaP cells (%). The method, then:
The amount of AR protein present in LNCaP or VCaP cells was measured after treating them with the synthesized compound. The amount of AR protein was measured using Western blotting. The protocol for the experiments using LNCaP or VCaP cells was as follows.
[Culture] LNCaP cells were resuspended in RPMI1640 medium + HEPES (Hyclone, SH30255.01), 10% FBS (Hyclone, SV30207.02), and 1% Penicillin-streptomycin (Welgene, LS 202-02). 3 x 10^5 cells/mL were seeded in 12-well plates (1 mL per well) and cultured for 3 days. VCaP cells were resuspended in IMDM MEDIUM (Hyclone, SH30228.01), 20% FBS (Hyclone, SV30207.02), and 1% Penicillin-streptomycin (Welgene, LS 202-02), seeded at 9 x 10^5/mL in 1 mL per 12-well plate, and cultured for 3 days.
[Compound Treatment] 10 µL of 100x stock (e.g., 0.1, 1, 10 µM) compound solution at the final compound treatment concentration (e.g., 0.001, 0.01, 0.1 µM) was added to each well in 1 mL media, and cells were harvested after 20 hours. For DC50 measurement, 100x stock (0.01, 0.1, 1, 10, 100, 1000 µM) compound solutions at the final compound treatment concentration (0.0001, 0.001, 0.01, 0.1, 1, 10 µM) were used.
[Cell lysis] The cell pellet was suspended using 1% SDS lysis buffer (50 mM Tris, 1 mM EDTA, 1% SDS, pH 8.0, 0.5 mM PMSF, 1x Protease/Phosphatase inhibitor Cocktail (Cell Signaling Technology, 5872S)), and sonication (70% AMP, 10 cycles (30 sec ON/59 sec OFF)) was performed. After centrifugation at 4°C and 20,000 g for 20 minutes, the cell lysate was obtained and transferred to a new tube.
[Protein Quantification] A BCA protein assay (SMART™ BCA Protein Assay Kit, iNtRON Biotechnology, 21071) was performed using a 96-well microplate. 5 µL of cell lysate and 5 µL of 1% SDS lysis buffer were added to each well of the 96-well plate, followed by an additional 200 µL of BCA reagent (Reagent A: Reagent B = 50:1). The wells were incubated at 37°C for 30 minutes and cooled to room temperature for 10 minutes. After shaking for 10 seconds, the absorbance was measured at a wavelength of 562 nm. The unknown protein concentration was determined using a BSA standard curve (0, 0.125, 0.25, 0.5, 1, 2 mg/mL). Western blotting samples were prepared by mixing cell lysate, 1% SDS lysis buffer, 4x NuPAGE™ LDS Sample buffer (Invitrogen, NP0008), and 10X NuPAGE™ Sample Reducing Agent (Invitrogen, NP0009) and boiling at 70°C for 10 minutes.
[Electrophoresis] 10 µg of protein sample was loaded into each well of a NuPAGE™ 4 to 12%, Bis-Tris, 1.0 mm Mini Protein Gel, 15-well, 17-well, or 26-well (Invitrogen, NP0323BOX, NP0329BOX, or WG1403BOX) and electrophoresed for 40 minutes using NuPAGE™MES SDS Running Buffer (Invitrogen, NP0002) at 200 V (constant V).
[Transfer] Transfer was performed for 15 or 18 minutes using the electrophoresed gel and the Trans-Blot® Turbo™ Transfer Starter System (Bio-RAD, #17001918, Mini Nitrocellulose) at 1.3 A (constant A) and 25 V (limit V). To confirm protein transfer, 15 mL of Ponceau S solution (Sigma, P7170-1L) was used to stain for 1 minute, and then washed to check the degree of transfer.
[Blocking] The membrane for AR and GAPDH detection was blocked with 5% skim milk/0.2% TBST (Skim milk: BD, 232100/ 20X TBS: Biosesang, TR2008-100-00/ 10% Tween 20 Solution: Bio-RAD, #161-0781) for 45 minutes.
[Antibodies and Detection] Primary AR antibody (Androgen Receptor: CST, 5153S) was mixed with 5% skim milk/0.2% TBST at a ratio of 1:1,000 and reacted at room temperature for 3 hours or at 4°C overnight. Primary GAPDH antibody (CST, 2118S) was mixed with 5% skim milk/0.2% TBST at a ratio of 1:2,000 and reacted at room temperature for 3 hours or at 4°C overnight. Afterwards, TBST (0.2% Tween 20) was used for washing three times every 5 minutes. Secondary antibody to AR antibody, Anti-rabbit IgG, HRP-linked Antibody (CST, 7074S), was mixed with 5% skim milk/0.2% TBST at a ratio of 1:5,000 and reacted at room temperature for 45 minutes. […]
(Immunoblotting shows a protein as a band on a membrane.)
On to `COc1cc(N2CCC(C(=O)Nc3ccc(OC4CCN(CC5CCN(c6ccc(NC7CCC(=O)NC7=O)cc6F)CC5)CC4)cn3)CC2)ccc1C#N` (centres unmarked) [Example 13, 1-(4-cyano-3-methoxyphenyl)-N-(5-((1-((1-(4-((2,6-dioxopiperidin-3-yl)amino)-2-fluorophenyl)piperidin-4-yl)methyl)piperidin-4-yl)oxy)pyridin-2-yl)piperidine-4-carboxamide], for which the Dmax at 0.01 µM came out at 91%.

Staying with this experiment, now noted: 100 nM compound, 20 hours, LNCaP cells; read-out: AR degradation in LNCaP cells (%).
As for `COc1cc(N2CCC(C(=O)Nc3ccc(OC4CCN(CC5CCN(c6ccc(NC7CCC(=O)NC7=O)cc6F)CC5)CC4)cn3)CC2)ccc1C#N` (centres unmarked) [Example 13, 1-(4-cyano-3-methoxyphenyl)-N-(5-((1-((1-(4-((2,6-dioxopiperidin-3-yl)amino)-2-fluorophenyl)piperidin-4-yl)methyl)piperidin-4-yl)oxy)pyridin-2-yl)piperidine-4-carboxamide], the Dmax at 0.1 µM was 99%.

The experiment is the same for the next values; noted with them: LNCaP, 20 h, read-out: AR degradation in LNCaP cells (%).
Take `N#Cc1ccc(N2CCC(C(=O)Nc3ccc(OC4CCN(CC5CCN(c6ccc(NC7CCC(=O)NC7=O)cc6F)CC5)CC4)cn3)CC2)cc1C(F)(F)F` (centres unmarked) [Example 1, 1-(4-cyano-3-(trifluoromethyl)phenyl)-N-(5-((1-((1-(4-((2,6-dioxopiperidin-3-yl)amino)-2-fluorophenyl)piperidin-4-yl)methyl)piperidin-4-yl)oxy)pyridin-2-yl)piperidine-4-carboxamide]: the Dmax at 0.01 µM is 84% and the Dmax at 0.1 µM was 99%.
For `N#Cc1ccc(N2CCC(C(=O)Nc3ccc(OC4CCN(CC5CCN(c6ccc(N[C@H]7CCC(=O)NC7=O)cc6F)CC5)CC4)cn3)CC2)cc1C(F)(F)F` [Example 2, (S)-1-(4-cyano-3-(trifluoromethyl)phenyl)-N-(5-((1-((1-(4-((2,6-dioxopiperidin-3-yl)amino)-2-fluorophenyl)piperidin-4-yl)methyl)piperidin-4-yl)oxy)pyridin-2-yl)piperidine-4-carboxamide], the Dmax at 0.01 µM amounted to 86% and the Dmax at 0.1 µM was found to be 99%.
The corresponding values for `N#Cc1ccc(N2CCC(C(=O)Nc3ccc(OC4CCN(CC5CCN(c6ccc(N[C@@H]7CCC(=O)NC7=O)cc6F)CC5)CC4)cn3)CC2)cc1C(F)(F)F` [Example 3, (R)-1-(4-cyano-3-(trifluoromethyl)phenyl)-N-(5-((1-((1-(4-((2,6-dioxopiperidin-3-yl)amino)-2-fluorophenyl)piperidin-4-yl)methyl)piperidin-4-yl)oxy)pyridin-2-yl)piperidine-4-carboxamide] are 93% and 99%.
The matching figures for `N#Cc1ccc(N2CCC(C(=O)Nc3ccc(OC4CCN(CC5CCN(c6ccc(NC7CCC(=O)NC7=O)cc6F)CC5)CC4)nn3)CC2)cc1C(F)(F)F` (centres unmarked) [Example 7, 1-(4-cyano-3-(trifluoromethyl)phenyl)-N-(6-((1-((1-(4-((2,6-dioxopiperidin-3-yl)amino)-2-fluorophenyl)piperidin-4-yl)methyl)piperidin-4-yl)oxy)pyridazin-3-yl)piperidine-4-carboxamide]: 79% and 93%.
On to `N#Cc1ccc(N2CCC(C(=O)Nc3ccc(OC4CCN(CC5CCN(c6ccc(NC7CCC(=O)NC7=O)cc6F)CC5)CC4)cn3)CC2)cc1Cl` (centres unmarked) [Example 8, 1-(3-chloro-4-cyanophenyl)-N-(5-((1-((1-(4-((2,6-dioxopiperidin-3-yl)amino)-2-fluorophenyl)piperidin-4-yl)methyl)piperidin-4-yl)oxy)pyridin-2-yl)piperidine-4-carboxamide], for which the Dmax at 0.01 µM was determined as 91% and the Dmax at 0.1 µM was determined as 98%.
The corresponding values for `N#Cc1ccc(N2CCC(C(=O)Nc3ccc(OC4CCN(CC5CCN(c6ccc(N[C@H]7CCC(=O)NC7=O)cc6F)CC5)CC4)cn3)CC2)cc1Cl` [Example 9, (S)-1-(3-chloro-4-cyanophenyl)-N-(5-((1-((1-(4-((2,6-dioxopiperidin-3-yl)amino)-2-fluorophenyl)piperidin-4-yl)methyl)piperidin-4-yl)oxy)pyridin-2-yl)piperidine-4-carboxamide] are 86% and 96%.
The matching figures for `N#Cc1ccc(N2CCC(C(=O)Nc3ccc(OC4CCN(CC5CCN(c6ccc(N[C@@H]7CCC(=O)NC7=O)cc6F)CC5)CC4)cn3)CC2)cc1Cl` [Example 10, (R)-1-(3-chloro-4-cyanophenyl)-N-(5-((1-((1-(4-((2,6-dioxopiperidin-3-yl)amino)-2-fluorophenyl)piperidin-4-yl)methyl)piperidin-4-yl)oxy)pyridin-2-yl)piperidine-4-carboxamide]: 90% and 99%.
Regarding `N#Cc1ccc(N2CCC(C(=O)Nc3ccc(OC4CCN(CC5CCN(c6ccc(NC7CCC(=O)NC7=O)cc6F)CC5)CC4)cn3)CC2)c(F)c1Cl` (centres unmarked) [Example 12, 1-(3-chloro-4-cyano-2-fluorophenyl)-N-(5-((1-((1-(4-((2,6-dioxopiperidin-3-yl)amino)-2-fluorophenyl)piperidin-4-yl)methyl)piperidin-4-yl)oxy)pyridin-2-yl)piperidine-4-carboxamide], the Dmax at 0.01 µM came to 88% and the Dmax at 0.1 µM amounted to 96%.
As for `N#Cc1ccc(N2CCC(C(=O)Nc3ccc(OC4CCN(CC5CCN(c6ccc(NC7CCC(=O)NC7=O)cc6F)CC5)CC4)nn3)CC2)c(F)c1Cl` (centres unmarked) [Example 15, 1-(3-chloro-4-cyano-2-fluorophenyl)-N-(6-((1-((1-(4-((2,6-dioxopiperidin-3-yl)amino)-2-fluorophenyl)piperidin-4-yl)methyl)piperidin-4-yl)oxy)pyridazin-3-yl)piperidine-4-carboxamide], the Dmax at 0.01 µM is 88% and the Dmax at 0.1 µM came to 90%.
